Test results published in patent publication US9487554B2, “Estra-1,3,5(10),16-tetraene-3-carboxamide derivatives, processes for their preparation, pharmaceutical preparations comprising them and their use for preparing medicaments” (BAYER INTELLECTUAL PROPERTY GmbH, priority 2011, dated 2016).
≈ marks a conversion by molar mass, not a printed value. Where “and” joins values, the source holds several entries; their conditions need not be identical. Equal entries are not always repeated. Where two headings read alike, the source gives them in different places.

Experiments:
Human CYP17A1 = Human CYP17A1 (Homo sapiens (Human), UniProt P05093); assay: Inhibition of CYP17A1 (recombinant enzyme, progesterone hydroxylation, HPLC radio detection); type: biochemical; settings: for IC50: read-out: IC50 ± SD CYP17
Human CYP17A1, sequence (P05093 whole entry): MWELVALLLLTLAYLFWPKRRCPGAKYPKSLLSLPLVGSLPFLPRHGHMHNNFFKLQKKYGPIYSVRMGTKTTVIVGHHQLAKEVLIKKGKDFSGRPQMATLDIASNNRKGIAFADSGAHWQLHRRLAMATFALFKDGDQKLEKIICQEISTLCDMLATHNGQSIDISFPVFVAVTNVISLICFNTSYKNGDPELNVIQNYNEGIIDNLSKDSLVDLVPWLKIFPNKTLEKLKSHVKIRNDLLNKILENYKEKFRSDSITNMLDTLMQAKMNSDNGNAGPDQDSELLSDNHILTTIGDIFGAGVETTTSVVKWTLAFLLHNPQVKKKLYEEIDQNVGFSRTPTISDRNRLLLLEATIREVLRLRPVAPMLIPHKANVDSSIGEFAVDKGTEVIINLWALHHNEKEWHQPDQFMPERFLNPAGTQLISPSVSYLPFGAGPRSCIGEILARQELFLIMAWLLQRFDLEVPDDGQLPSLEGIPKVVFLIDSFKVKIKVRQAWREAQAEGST
Procedure: The inhibition of CYP17A1 by the test compounds was evaluated using a recombinant enzyme. Human CYP17A1 was expressed in E. coli (Ehmer, P. B. et al.; J. Steroid Biochem. Mol. Biol., 75, 57-63 (2000)). The microsomal fraction and 140 μL of phosphate buffer (50 mM Na phosphate, 1 mM MgCl2, 0.1 mM EDTA, 0.1 mM dithiothreitol, pH 7.4) were preincubated separately with a mixture of progesterone (24.95 μM) and ^3H-progesterone (0.05 μM, 101.3 Ci/mmol), […] of an NADPH regeneration system (in phosphate buffer with 10 mM NADP+, 100 mM glucose 6-phosphate and 2.5 U of glucose 6-phosphate dehydrogenase) and the appropriate test substances (in 5 μl of DMSO) at 37° C. for 5 minutes. The reaction was started by addition of the enzyme and, after 30 minutes of incubation at 37° C., stopped by addition of 50 μl of 1N hydrochloric acid.
The steroids were extracted with ethyl acetate. After evaporation of the organic phase, the steroids were taken up in acetonitrile. 16α-Hydroxyprogesterone, 17α-hydroxyprogesterone and progesterone were separated using acetonitrile/water (45:55) as mobile phase on a C18 reverse-phase chromatography column (Nucleodur C18 Gravity, 3 μm, Macherey-Nagel, Düren, Germany) on an HPLC system (Agilent 1100 Series, Agilent Technologies, Waldbronn, Germany). Detection and quantification of the steroids was carried out using a radio flow detector (Berthold Technologies, Bad Wildbad, Germany). The inhibition was calculated using the formula below: […]
Each value was calculated from at least three independent experiments. The final IC50 value was calculated as the mean of 3 or 4 independent IC50 values.

[1] = Thermodynamic solubility in aqueous buffer pH 6.5 (shake-flask method); type: physicochemical; settings: thermodynamic from solid
Procedure: Determination of the Thermodynamic Solubility in Aqueous Buffer pH 6.5 (Shake-Flask Method)
The thermodynamic solubility was determined according to the shake-flask method [literature: Edward H. Kerns and Li Di (2008) Solubility Methods in: Drug-like Properties: Concepts, Structure Design and Methods, p 276-286. Burlington, Mass., Academic Press].
Here, a saturated solution of the active compound in buffer pH 6.5 was prepared and stirred for 24 h to ensure that an equilibrium between the solid and the substance in solution had formed. The solution was then centrifuged, and the concentration of the solution obtained was quantified with the aid of a calibration line.
For the sample, 2 mg of solid substance were weighed out accurately into a 4 ml glass bottle. 1 ml of phosphate buffer pH 6.5 was added. This solution was stirred on a stirrer at room temperature for 24 h. The solution was then centrifuged. To prepare the comparison for the calibration, 2 mg of solid substance were weighed out accurately and dissolved in 30 ml of acetonitrile. After a short ultrasound treatment, the solution was diluted with water to 50 ml.
Sample and comparison were quantified using HPLC with UV detection. […]
The areas of the sample and comparison injections and the calculation of the solubility (in mg/l) were determined using the HPLC software (Waters Empower 2 FR).

recombinant human AKR1C3 = recombinant human AKR1C3 (Homo sapiens (Human), UniProt P42330); assay: AKR1C3 enzyme inhibition assay (Coumberone to Coumberol fluorescence); type: biochemical; settings: individual experimental determinations
recombinant human AKR1C3, sequence (P42330 whole entry): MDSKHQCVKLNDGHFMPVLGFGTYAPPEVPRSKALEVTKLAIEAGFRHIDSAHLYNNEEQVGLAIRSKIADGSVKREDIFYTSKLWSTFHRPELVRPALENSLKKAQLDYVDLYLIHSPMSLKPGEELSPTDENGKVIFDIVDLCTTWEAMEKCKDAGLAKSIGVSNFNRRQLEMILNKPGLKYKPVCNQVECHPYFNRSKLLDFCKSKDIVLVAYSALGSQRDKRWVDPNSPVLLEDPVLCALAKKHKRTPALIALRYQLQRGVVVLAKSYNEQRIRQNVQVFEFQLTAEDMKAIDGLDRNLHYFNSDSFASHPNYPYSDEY
Procedure: The AKR1C3-inhibitory activity of the substances of the present invention was measured in the AKR1C3 assay described in the paragraphs below.
Essentially, the enzyme activity is measured by quantification of the Coumberol from Coumberone (Halim, M., Yee, D. J., and Sames, D., J. AM. CHEM. SOC. 130, 14123-14128 (2008) and Yee, D. J., Balsanek, V., Bauman, D. R., Penning, T. M., and Sames, D., Proc. Natl. Acad. Sci. USA 103, 13304-13309 (2006)). In this test, the increase of the highly fluorescent Coumberol by NADPH—(nicotinamide adenine dinucleotide phosphate)-dependent reduction of the non-fluorescent Coumberone by AKR1C3 can be determined.
The enzyme used was recombinant human AKR1C3 (Aldo-keto reductase family 1 member C3) (GenBank Accession No. NM_003739). This was expressed in E. coli as GST (glutathione S transferase) fusion protein and purified by glutathione Sepharose affinity chromatography. The GST was removed by digestion with thrombin and subsequent size exclusion chromatography (Dufort, I., Rheault, P., Huang, X F., Soucy, P., and Luu-The, V., Endocrinology 140, 568-574 (1999)).
For the assay, 50 nl of a 100-fold concentrated solution of the test substance in DMSO were pipetted into a black low-volume 384-well microtiter plate (Greiner Bio-One, Frickenhausen, Germany), 2.0 μl of a solution of AKR1C3 in assay buffer [50 mM potassium phosphate buffer pH 7, 1 mM DTT, 0.0022% (w/v) Pluronic F-127, 0.01% BSA (w/v) and protease inhibitor cocktail (Complete, EDTA-free Protease Inhibitor Cocktail from Roche)] were added and the mixture was incubated for 15 min to allow pre-binding of the substances to the enzyme prior to the enzyme reaction. The enzyme reaction was then started by addition of 3 μl of a solution of NADPH (16.7 μM→final concentration in 5 μl of assay volume is 10 μM) and Coumberone (0.5 μM→final concentration in 5 μl of assay volume is 0.3 μM) in assay buffer, and the resulting mixture was incubated at 22° C. for the reaction time of 90 min. The concentration of the AKR1C3 was adapted to the respective activity of the enzyme preparation and adjusted such that the assay was carried out in the linear range. Typical concentrations were in the region of 1 nM. The reaction was stopped by addition of 5 μl of a stop solution consisting of the inhibitor EM-1404 [F. Labrie et al. U.S. Pat. No. 6,541,463, 2003] (2 μM→final concentration in […] is 1 μM). The fluorescence of the Coumberole was then measured at 520 nm (excitation at 380 nm) using a suitable measuring instrument (Pherastar from BMG Labtechnologies). The intensity of the fluorescence was used as a measure of the amount of Coumberole formed and thus of the enzyme activity of AKR1C3. The data were normalized (enzyme reaction without inhibitor=0% inhibition; all other assay components, but no enzyme=100% inhibition).

[2] = human CYP17A1 expressed in E. coli, mean of 3 or 4 independent IC50 values

SMILES	IC50 (Human CYP17A1; [2])	IC50 (recombinant human AKR1C3)	further results
C[C@]12CC[C@H](O)CC1=CC[C@@H]1[C@@H]2CC[C@]2(C)C(c3cccnc3)=CC[C@@H]12 [Abiraterone, abiraterone, reference compound]	29 ± 4 nM	–	–
CC1(C)CC[C@@]2(CC[C@H]3[C@@H]4CCc5cc(C(N)=O)ccc5[C@H]4CC[C@@]32C)OC1=O [EM-1404, reference compound]	–	–	solubility at 24 h ([1]; aqueous buffer, phosphate buffer pH 6.5, room temperature, 24 h, shake-flask, read-out: solubility): 0.1 µg/mL (≈ 0.253 µM)
CN(CCC(=O)O)C(=O)c1ccc2c(c1)CC[C@@H]1[C@@H]2CC[C@]2(C)C(c3cncc(F)c3)=CC[C@@H]12 [Example 2, N-{[17-(5-Fluoropyridin-3-yl)estra-1,3,5(10),16-tetraen-3-yl]carbonyl}-N-methyl-β-alanine]	~200000 nM	1.3 nM and 1.4 nM	% Inhibition at a concentration of 200 μM substance (Human CYP17A1; human CYP17, 200 μM substance): 49%; solubility at 24 h ([1]; pH 6.5, aqueous buffer): 354 µg/mL (≈ 765 µM)
CC(C)(CNC(=O)c1ccc2c(c1)CC[C@@H]1[C@@H]2CC[C@]2(C)C(c3cncc(F)c3)=CC[C@@H]12)C(=O)O [Example 5, 3-({[17-(5-Fluoropyridin-3-yl)estra-1,3,5(10),16-tetraen-3-yl]carbonyl}amino)-2,2-dimethylpropanoic acid]	85500 ± 7700 nM	9.1 nM and 8 nM and 4.3 nM and 3.6 nM	–
C[C@]12CC[C@@H]3c4ccc(C(=O)NCCC(=O)O)cc4CC[C@H]3[C@@H]1CC=C2c1cncc(F)c1 [Example 9, N-{[17-(5-Fluoropyridin-3-yl)estra-1,3,5(10),16-tetraen-3-yl]carbonyl}-β-alanine]	–	8.3 nM and 8.9 nM (2×)	IC50 ± SD CYP17 (Human CYP17A1; [2]): No inhibition
C[C@]12CC[C@@H]3c4ccc(C(=O)NCC(=O)O)cc4CC[C@H]3[C@@H]1CC=C2c1cncc(F)c1 [Example 10, N-{[17-(5-Fluoropyridin-3-yl)estra-1,3,5(10),16-tetraen-3-yl]carbonyl}glycine]	15200 ± 1580 nM	4.9 nM and 7.3 nM	–
